Patent publication US20240109972A1, “ANTIBODY AND TAXANE COMBINATION THERAPY” (Genmab A/S, priority 2020, published 2024)

System: solid malignant tumors
Assay: GEN1046 Phase I dose escalation (NCT03917381), response by RECIST v1.1
Assay type: in vivo, human
Details: for BOR Stable Disease, (percent) / BOR Stable Disease, patients / BOR Complete Response, (percent) / BOR Complete Response, patients / BOR Progressive Disease, (percent) / BOR Progressive Disease, patients / BOR Partial Response, (percent) / BOR Partial Response, patients: 3 Feb. 2020
Source text: The resistance to, failure to respond to and/or relapse from treatment with a binding agent of the invention and/or other therapeutic agent(s) may be determined according to the Response Evaluation Criteria In Solid Tumors; version 1.1 (RECIST Criteria v1.1).
The “best overall response” is the best response recorded from the start of the treatment until disease progression/recurrence (the smallest measurements recorded since the treatment started will be used as the reference for PD). Subjects with CR or PR are considered to be objective response. Subjects with CR, PR or SD are considered to be in disease control. Subjects with NE are counted as non-responders. […]
Clinical trial on GCT1046-01 (ClinicalTrials.gov Identifier: NCT03917381) was designed as a two-part trial, including an ongoing dose escalation part and a planned expansion part.
The trial consists of 2 parts; a First-in-Human (FIH) dose escalation (Phase I) and an expansion (Phase 11a).
For dose escalation, subject was required to be a man or […] and was required to have measurable disease according to RECIST 1.1.

Substance: GEN1046: PD-L1×4-1BB bispecific antibody: PD-L1-547-FEAL combined with CD137-009-HC7LC2-FEAR (SEQ ID NOs: 1, 5, 21, 19; 8, 12, 22, 20)
- BOR Stable Disease, (percent) (140 mg (n = 1)): (0)
- BOR Stable Disease, patients (140 mg (n = 1)): 0
- CR (Complete Response), patients (200 mg (N 9), Oct. 12, 2020): 0
- Confirmed CR (Complete Response), patients (200 mg (N 9), Oct. 12, 2020): 0
- Confirmed Disease Control (PR + PR + SD) Rate, % (200 mg (N 9), Oct. 12, 2020): 66.7%
- Confirmed Disease Control (PR + PR + SD) Rate, patients (200 mg (N 9), Oct. 12, 2020): 6
- Confirmed NE (Not Evaluable), % of patients (200 mg (N 9), Oct. 12, 2020): 11.1%
- Confirmed NE (Not Evaluable), patients (200 mg (N 9), Oct. 12, 2020): 1
- Confirmed Objective Response (CR + PR) Rate, patients (200 mg (N 9), Oct. 12, 2020): 0
- Confirmed PD (Progressive Disease), % of patients (200 mg (N 9), Oct. 12, 2020): 22.2%
- Confirmed PD (Progressive Disease), patients (200 mg (N 9), Oct. 12, 2020): 2
- Confirmed PR (Partial Response), patients (200 mg (N 9), Oct. 12, 2020): 0
- Confirmed SD (Stable Disease), % of patients (200 mg (N 9), Oct. 12, 2020): 66.7%
- Confirmed SD (Stable Disease), patients (200 mg (N 9), Oct. 12, 2020): 6
- Disease Control (PR + PR + SD) Rate, % (200 mg (N 9), Oct. 12, 2020): 66.7%
- Disease Control (PR + PR + SD) Rate, patients (200 mg (N 9), Oct. 12, 2020): 6
- NE (Not Evaluable), % of patients (200 mg (N 9), Oct. 12, 2020): 11.1%
- NE (Not Evaluable), patients (200 mg (N 9), Oct. 12, 2020): 1
- Objective Response (CR + PR) Rate, % (200 mg (N 9), Oct. 12, 2020): 11.1%
- Objective Response (CR + PR) Rate, patients (200 mg (N 9), Oct. 12, 2020): 1
- PD (Progressive Disease), % of patients (200 mg (N 9), Oct. 12, 2020): 22.2%
- PD (Progressive Disease), patients (200 mg (N 9), Oct. 12, 2020): 2
- PR (Partial Response), % of patients (200 mg (N 9), Oct. 12, 2020): 11.1%
- PR (Partial Response), patients (200 mg (N 9), Oct. 12, 2020): 1
- BOR Complete Response, (percent) (200 mg (n = 8)): (0)
- BOR Complete Response, patients (200 mg (n = 8)): 0
- BOR Progressive Disease, (percent) (200 mg (n = 8)): (25)
- BOR Progressive Disease, patients (200 mg (n = 8)): 2
- BOR Stable Disease, (percent) (200 mg (n = 8)): (62.5)
- BOR Stable Disease, patients (200 mg (n = 8)): 5
- BOR Partial Response, (percent) (200 mg (n = 8), uPR): (12.5)
- BOR Partial Response, patients (200 mg (n = 8), uPR): 1^1
- CR (Complete Response), patients (400 mg (N 9), Oct. 12, 2020): 0
- Confirmed CR (Complete Response), patients (400 mg (N 9), Oct. 12, 2020): 0
- Confirmed Disease Control (PR + PR + SD) Rate, % (400 mg (N 9), Oct. 12, 2020): 77.8%
- Confirmed Disease Control (PR + PR + SD) Rate, patients (400 mg (N 9), Oct. 12, 2020): 7
- Confirmed NE (Not Evaluable), patients (400 mg (N 9), Oct. 12, 2020): 0
- Confirmed Objective Response (CR + PR) Rate, patients (400 mg (N 9), Oct. 12, 2020): 0
- Confirmed PD (Progressive Disease), % of patients (400 mg (N 9), Oct. 12, 2020): 22.2%
- Confirmed PD (Progressive Disease), patients (400 mg (N 9), Oct. 12, 2020): 2
- Confirmed PR (Partial Response), patients (400 mg (N 9), Oct. 12, 2020): 0
- Confirmed SD (Stable Disease), % of patients (400 mg (N 9), Oct. 12, 2020): 77.8%
- Confirmed SD (Stable Disease), patients (400 mg (N 9), Oct. 12, 2020): 7
- Disease Control (PR + PR + SD) Rate, % (400 mg (N 9), Oct. 12, 2020): 77.8%
- Disease Control (PR + PR + SD) Rate, patients (400 mg (N 9), Oct. 12, 2020): 7
- NE (Not Evaluable), patients (400 mg (N 9), Oct. 12, 2020): 0
- Objective Response (CR + PR) Rate, patients (400 mg (N 9), Oct. 12, 2020): 0
- PD (Progressive Disease), % of patients (400 mg (N 9), Oct. 12, 2020): 22.2%
- PD (Progressive Disease), patients (400 mg (N 9), Oct. 12, 2020): 2
- PR (Partial Response), patients (400 mg (N 9), Oct. 12, 2020): 0
- BOR Complete Response, (percent) (400 mg (n = 6)): (0)
- BOR Complete Response, patients (400 mg (n = 6)): 0
- BOR Partial Response, (percent) (400 mg (n = 6)): (0)
- BOR Partial Response, patients (400 mg (n = 6)): 0
- BOR Progressive Disease, (percent) (400 mg (n = 6)): (0)
- BOR Progressive Disease, patients (400 mg (n = 6)): 0
- BOR Stable Disease, (percent) (400 mg (n = 6)): (100)
- BOR Stable Disease, patients (400 mg (n = 6)): 6
- CR (Complete Response), patients (800 mg (N 9), Oct. 12, 2020): 0
- Confirmed CR (Complete Response), patients (800 mg (N 9), Oct. 12, 2020): 0
- Confirmed Disease Control (PR + PR + SD) Rate, % (800 mg (N 9), Oct. 12, 2020): 55.6%
- Confirmed Disease Control (PR + PR + SD) Rate, patients (800 mg (N 9), Oct. 12, 2020): 5
- Confirmed NE (Not Evaluable), % of patients (800 mg (N 9), Oct. 12, 2020): 22.2%
- Confirmed NE (Not Evaluable), patients (800 mg (N 9), Oct. 12, 2020): 2
- Confirmed Objective Response (CR + PR) Rate, patients (800 mg (N 9), Oct. 12, 2020): 0
- Confirmed PD (Progressive Disease), % of patients (800 mg (N 9), Oct. 12, 2020): 22.2%
